Laboratory results from a melting point compilation (Tetko et al.; mined from patent text by program, amines drawn as free bases though some values may be those of a salt).

Row | melting point [°C] | Structure (SMILES)
1 | 110 | COC(=O)C1=C(C)NC(C)=C(C(=O)OCCOc2ccc(CCOC(C)=O)cc2)C1c1cccc([N+](=O)[O-])c1 (centres undefined)
2 | 180 to 182 | Cc1ccc(Cc2cnc(NCCCCNc3ncccc3Cl)[nH]c2=O)cn1
3 | 160 to 161 | O=C(CCCCCCNC(=O)c1cc2cccc3c2n1CCC3)NO
4 | 217 | CCc1nc2c(C)cc(C)nc2n1Cc1ccc(-c2ccccc2-c2c(N)c(=O)c2=O)cc1
5 | 124 to 126 | CC(C)CCSc1cc(C(=O)O)cc(N)c1-c1ccccc1
6 | 114 to 117 | O=Cc1cc(CSc2c(Cl)cccc2Cl)ccc1O
7 | 216 to 218 | N#Cc1cccc(-n2c(=O)c(C(=O)Cc3ccccc3)c(O)c3cccnc32)c1
8 | 75 to 76 | Cc1cccc(N2CCN(C(=O)CCCCCCC(=O)NO)CC2C)c1 (centres undefined)
9 | 104 to 105 | CCCCCc1ccc(-c2ncc(O)cn2)c(F)c1F
10 | 210 to 212 | O=C(O)CCc1nc(C(=O)O)ccc1O
11 | 98.9 to 99.6 | CCCCCc1ccc2c(c1)Cc1cc(CCCCC)ccc1-2
12 | 86 | CCCCCCCCCOc1ccc(-c2ccc(C3CCC(C#N)(CCCCCCCCC)CC3)cc2)cc1 (centres undefined)
13 | 160 | COC(=O)c1ccc2c(c1)S(=O)(=O)c1ccccc1O2
14 | 61 | COC(=O)CCNc1ccc(CNC(=O)C2Cc3ccccc3N2S(=O)(=O)c2ccc(-c3cccc(C(F)(F)F)c3)cc2)cc1 (centres undefined)
15 | 128 to 130 | CCOC(=O)C(=O)Nc1ccc(Cl)c(C(F)(F)F)c1
16 | 189 to 190 | CC1CC(=O)NN=C1c1ccc(NC(=O)C2(Cl)CC2)cc1 (centres undefined)
17 | 83 to 84 | CCCCC(C(=O)O)c1cccc(Oc2ccccc2C)c1O (centres undefined)
18 | 136 | CCOC(=O)C1=C2NCCN2C(C)=C(C(=O)OC(C)C)C1c1cccc([N+](=O)[O-])c1 (centres undefined)
19 | 175 to 178 | CC(C)c1ccc(C2(CC(=O)O)CNC(=O)C2)cc1 (centres undefined)
20 | 84 to 86 | CCCCCc1ccc(C(=O)CCCCC(=O)O)cc1

Row | melting point [°C] | Structure (SMILES)
21 | 203 to 208 | COc1cc2ccc(C(=N)NO)cc2cc1OC
22 | 220 to 222 | CCOCc1nc2c(N)nc3cc(OCCc4c[nH]c5ccccc45)ccc3c2n1CC(C)(C)O
23 | 157 to 159 | CN(O)C(=O)c1ccc(CCCCc2ccc(C(=O)N(C)O)cc2)cc1
24 | 152 to 153 | CCOC(=O)C(=O)c1oc(=O)[nH]c1-c1ccc(Cl)cc1
25 | 87 to 89 | COC(=O)C=Cc1nc(C(=O)CCCC(=O)OC)ccc1OC
26 | 100 to 102 | Cc1ccc(-c2ccc(CBr)cc2)cc1
27 | 165 to 167 | O=c1[nH][nH]c(C(F)(F)F)c1Cc1ccc2ccccc2c1
28 | 166 to 168 | COc1c(C2CCN(CCCCNC(=O)c3ccc(-c4ccc(C#N)cc4)nc3)CC2)ccc2c1CCCC2
29 | 111 to 113 | CCOCCOc1cccc2oc(-c3cccs3)cc(=O)c12
30 | 124 to 127 | O=C(CCCCN1CCCCC1)c1ccc2c(c1)Cc1cc(C(=O)CCCCN3CCCCC3)ccc1-2
31 | 94 to 95 | O=C(O)CCCCCCCSc1ccc(O)cc1
32 | 50 to 50.5 | CCCCCCCCC=CCCCCCCCC(=O)NCCCSc1ccncc1
33 | 211 to 213 | CCc1c(C(=O)c2cc(C)cc(C)c2)n(CCC2=CCCC2)c(=O)[nH]c1=O
34 | 58 to 60 | COC(=O)c1ccsc1COc1ccc(CCCCO)cc1
35 | 57.5 to 66.3 | CCCCOC(=O)c1cccc(I)c1C(=O)NC(C)(C)CS(C)=O (centres undefined)
36 | 100 | Cc1ccc(O)c(C(C)(O)c2ccccc2)c1 (centres undefined)
37 | 181 to 182 | Cc1cc(=O)[nH]c2nc(OCCCCN3CCN(c4cccc(Cl)c4Cl)CC3)ccc12
38 | 152 | COc1cccc(-c2cc(=O)c3cccc(C(=O)Nc4ccc(CCCCN5CCc6cc(OC)c(OC)cc6C5)cc4)c3o2)c1
39 | 168 to 170 | CNS(=O)(=O)c1cc(O)ccc1OC(=O)c1ccccc1

Further lines, the compound ahead of its results:

Row | Structure (SMILES) | melting point [°C]
40 | O=c1c(Cc2cccnc2)cc2cccnc2n1-c1cccc([N+](=O)[O-])c1 | 226 to 227
41 | CO[C@@H]1C=C2C=C3C(=C(C)C(=O)N3C)C[C@]2(C)[C@@H](C)[C@H]1O | 165 to 170
42 | CC(C)(C)OC(=O)N1CCN(C(=O)/C=C/c2ccc(Sc3ccc4c(c3)OCCO4)c([N+](=O)[O-])c2)CC1 | 165 to 167
43 | Cc1nn(C)c(OC(=O)C(Cl)=C(Cl)Cl)c1C(=O)c1ccc(Cl)cc1Cl | 141 to 142
44 | Cc1ccccc1-c1nc(-c2ccc(-c3ccccc3)cc2)n[nH]1 | 165 to 167
45 | Nc1ccc(S(=O)(=O)Nc2cccc3[nH]ccc23)cc1 | 215
46 | COc1cccc(CN2CCC(N3C(=O)Nc4ccccc4C3c3cccc(O)c3)CC2)c1 (centres undefined) | > 250
47 | O=C1COC(C#Cc2ccccc2)(C(F)(F)F)c2cc(Cl)ccc2N1 (centres undefined) | 190 to 191
48 | COc1cc(C)c(C(=O)c2c(OC)ncc(Cl)c2C)c(OC)c1OC | 92 to 94
49 | CN(C)CCN(CCN(C)C)c1ccc(-c2nc3ccccc3[nH]2)cc1 | 190 to 191
50 | CCC(CC)c1ccc(Cl)c2nc3n(c12)CCCCN3c1ncc([N+](=O)[O-])cc1C | 204 to 205
51 | COc1ccccc1[C@H](C)C(=O)N1C[C@@H]2[C@H](F)CCC(c3ccccc3)(c3ccccc3)[C@@H]2C1 | 195
52 | CCc1ccccc1OS(=O)(=O)c1ccc(N2CCN(C)C2=O)cc1 | 126 to 128
53 | CC(C)(C)OC(=O)NC1Cc2ccccc2C2OC12 (centres undefined) | 118 to 119
54 | CC(=O)OC1CC(n2cc(C=CBr)c(=O)[nH]c2=O)OC1CC#N (centres undefined) | 96
55 | CC(C)(C)CC(C)(C)c1cc(-c2cc(C(C)(C)CC(C)(C)C)cc(-n3nc4ccccc4n3)c2O)c(O)c(-n2nc3ccccc3n2)c1 | 209 to 211
56 | O=C(c1ccnc(Cl)c1)N1CC2(CCN(CC=Cc3ccc(C(F)(F)F)cc3)CC2)c2cc(Cl)ccc21 | 130
57 | O=c1[nH]c2c(F)cccc2o1 | 131 to 133
58 | O=S1(=O)c2ccccc2-n2c(Cl)nnc21 | 218 to 220
59 | CC(=O)OC[C@H]1[C@H](O)[C@@H](O)[C@@H](O)[C@@H]2NC(=O)c3cc4c(cc3[C@@H]12)OCO4 | > 200

Row | Structure (SMILES) | melting point [°C]
60 | CC1Nc2ccc(-c3cccc(F)c3)cc2C(C)(C)O1 (centres undefined) | 139 to 140
61 | O=C(NNc1ccccc1Cl)c1ccccc1F | 105 to 107
62 | CC1=CC=C[C@@H](O)[C@H]1O | 56 to 57
63 | COc1cc(C)nc(NC(=O)NS(=O)(=O)c2ccc(N=[N+]=[N-])cc2)n1 | 192
64 | N#Cc1ncccc1C(=O)ON=Cc1ccc(Cl)cc1 | 160
65 | CCNCC1CN(c2c(F)cc3c(=O)c(C(=O)O)cn(C4CC4)c3c2F)C1 | 237 to 242
66 | CCCCCCC(C)(C)c1ccc(C2=CC(=O)CCC2)c(O)c1 | 122 to 123
67 | COc1ccc2c(c1)c(=O)n1nc(C(N)=O)cc1n2C | > 300
68 | CN(C)C(c1cccc(F)c1)C1CCC(=O)CC1 (centres undefined) | 72 to 75
69 | CCOP(=O)(CC(=O)NNc1nc2ccc(C(F)(F)F)cc2n(O)c1=O)OCC | 193 to 196
70 | O=C(Nc1ccc(-n2nc(C(F)(F)F)cc2C(F)(F)F)cc1)c1ccc([N+](=O)[O-])cc1 | 185 to 188
71 | CN1CCN(CCCOc2ccccc2Nc2nc(C#N)nc3c2ncn3C2CCCC2)CC1 | 136 to 138
72 | COCc1nc2ncccc2n1Cc1ccc(C(=O)N(C(C)C)C2CCCCC2)cc1OC | 117 to 118
73 | CN1CCC(c2c[nH]c3ccc(OS(=O)(=O)c4ccc(F)c(F)c4F)cc23)CC1 | 160 to 162
74 | CC(C)(C(=O)NC(Nc1c(Nc2cccnc2)c(=O)c1=O)C(C)(C)Cc1ccccc1)c1ccccc1 (centres undefined) | 228 to 231
75 | COC1=C(OC)C(=O)c2ccccc2C1=O | 116 to 117
76 | Nc1nc(OCCc2ccccc2Cl)nc2c1ncn2C1OC(CO)C(O)C1O (centres undefined) | 158 to 161
77 | NC[C@@H]1CN(c2nc3c(cc2F)c(=O)c(C(=O)O)cn3C2CC2)C[C@@H]1F (relative stereo) | 217 to 218
78 | COc1cc(C=C(C#N)C(=O)NCCC(C)NC(=O)C(C#N)=Cc2cc(O)c(O)c(OC)c2)cc(O)c1O (centres undefined) | > 300
79 | CN(C)c1nn(-c2c(Cl)cc(C(F)(F)F)cc2Cl)c(=O)n1C | 105 to 107

Row | Structure (SMILES) | melting point [°C]
80 | Cc1cc(NC(=O)NS(=O)(=O)c2ccccc2)cc(C)c1S(=O)(=O)C[N+](=O)[O-] | 140 to 142
81 | Cc1ncn(C)c1CO | 125 to 127
82 | CC(C)(C)OC(=O)C[C@@H]1C[C@@H](COc2ccc(-c3ccc(C#N)c(F)c3)cc2)NC1=O | 142 to 144
83 | CC(C)Oc1ccc(O)cc1OCCN1C(=O)c2ccccc2C1=O | 123
84 | Cc1ccn2cc(CS)nc2c1 | 164 to 168
85 | Cc1cccc(-c2n[nH]cc2-c2ccc(F)c(-c3ccc(S(C)(=O)=O)cc3)c2)n1 | 100 to 102
86 | O=c1[nH]cnc2cc[nH]c12 | > 300
87 | COC(=O)c1sccc1Nc1ccnc2c(Cl)cccc12 | 226
88 | CSc1nc(-c2ccncc2)n(-c2ccc(F)cc2)c(=O)c1C#N | 301 to 303
89 | CCNc1nc(S(C)=O)ncc1C(=O)OCC (centres undefined) | 54 to 56
90 | Cc1nc2ccccn2c1CN1CCC(Nc2nc3ccccc3n2Cc2ccc(F)cc2)CC1 | 198
91 | O=C1NC(=O)C(c2c3n(c4ccccc24)CCC(CO)C3)=C1c1ccccc1Cl (centres undefined) | 232 to 233
92 | CC(C)(CNS(=O)(=O)c1ccc(-c2ccccn2)s1)N1CCC(Oc2ccc(F)c(F)c2)CC1 | 133 to 134
93 | CNC(=O)O/N=C(/SC)C(F)(F)F | 83 to 85
94 | O=C(C=Cc1ccc(Br)s1)Nc1nnn[nH]1 | 268
95 | Cc1cc(OC(F)(F)C(F)C(F)(F)F)ccc1NC(=O)c1cccc(I)c1 (centres undefined) | 188
96 | C=C(C)C(=O)NOC(=O)C(=C)C | 55
97 | Cc1nc2cc(C(F)(F)F)c(Cl)c([N+](=O)[O-])c2n1N(C)C | 160 to 162
98 | COc1cc(C(=O)CS(C)(=O)=O)cc(OC)c1N(C)C(C)=O | 141 to 142
99 | CC(C)(C)OC(=O)NC1Cc2ccccc2C1Oc1ccccc1 (centres undefined) | 99 to 101
